Assays:
hSIRT1 promoter = experiment: Enhancing the hSIRT1 promoter: EGFP fluorescence intensity in HaCaT-hSIRT1p-EGFP cells by flow cytometry; assay type: cell-based, human; conditions: 10 μM in DMSO, 24 hours after addition, FIG. 4
Method: HaCaT cells (human epidermis keratinocyte-derived cell lines, provided by Dr. Takumi Miura, National Center for Child Health and Development) were cultured using a Dalbecco's Modified Eagle Medium (DMEM) medium (Nissui Pharmaceutical Co., Ltd, Tokyo) supplemented with 10% FBS, 100,000 U/L penicillin (Meiji, Tokyo), 100 mg/L streptomycin (Meiji), and 2.0 g/L NaHCO3. These cells were subcultured at 37° C. in the presence of 5% CO2.
HaCaT cell lines (HaCaT-hSIRT1p-EGFP cells) into which the vector (phSIRT1-EGFP) described in Reference Example 1 was integrated were prepared as below.
The HaCaT cells were disseminated at 9.0×10^5 in a φ60-mm dish, and were cultured in 10% FBS supplemented DMEM medium. Cells as a control were prepared in a similar manner. After 24 hours, 8 μg of phSIRT1p-EGFP was added to and mixed with 300 μL of DMEM medium, 24 μL of Hilymax (manufactured by Dojindo Laboratories), which is a transfection reagent, was further added and mixed therewith, and the mixture was incubated for 15 minutes at room temperature. Subsequently, the total amount was added to the HaCaT cells. After 3 hours, the medium was replaced by 10% FBS supplemented DMEM medium.
At 24 hours after the gene introduction, the medium was replaced by 10% FBS supplemented DMEM medium containing 750 μg/mL of G418 (Wako Pure Chemical Industries, Ltd.). After visually confirming under a microscope that all the control non-treated HaCaT cells were killed, the subculture was continued using 10% FBS supplemented DMEM containing 150 μg/mL of G418.
It was confirmed with flow cytometry that the phSIRT1p-EGFP vector was reliably transferred inro the cells after the subculture. The above-described cells and the control non-treated HaCaT cells were plated at 7.0×10^5 per a φ60-mm dish, respectively. After 24 hours, the cells were picked up and well suspended in 2 mL of 5% FBS supplemented DMEM medium, and were filtered through a Nylon Mesh (Kyoshin Rikoh Inc., Japan), and the EGFP fluorescence intensity thereof was measured with a Flow Cytometer (EPICS, BeckmanCoulter). The analysis was performed using software FlowJo (Tree Star, Ashland Oreg.), so that the EGFP fluorescence intensity of each cell was represented as a histogram.
HaCaT-hSIRT1p-EGFP cells were plated at 1.7×10^6 cells in a φ60-mm dish (as measured by flow cytometry) or at 2.0×10^4 cells/well in a 96-well plate (as measured by an IN Cell Analyzer 1000). After 24 hours, 10 μM of each polyphenol or terpenoid dissolved in DMSO (Wako Pure Chemical Industries, Ltd.) was added thereto. Note that as a negative control, the same amount of DMSO was added without polyphenol or terpenoid, and as a positive control, 10 μM resveratrol was added. At 24 hours after the addition of the various polyphenols or terpenoids or the controls, the fluorescence intensity was measured by flow cytometry.

sirtuin gene hSIRT1 = experiment: Expression level of endogenous sirtuin gene hSIRT1 in Caco-2 cells (quantitative PCR, relative to β-actin); assay type: cell-based, human; conditions: 10 μM, 2 days, qPCR normalised to β-actin, FIG. 2
Method: Caco-2 cells were plated at 3.0×10^5 cells for a 5-mL dish. After 24 hours, each polyphenol was added to be 10 μM. Note that as a negative control, none of polyphenol nor terpenoid was added, and as a positive control, 10 μM resveratrol was added. At 2 days after this treatment, RNA was collected.
The total RNA was prepared using High Pure RNA Isolation Kit (manufactured by Roche, Indianapolis, Ind., USA). For the procedures from the total RNA preparation to the reverse transcription, the reagents and tools used were RNase-free. Cells were prepared in a sub-confluent to confluent condition in a cell culture dish (Greiner bio-one, Monroe, N.C., USA). The medium was completely removed, 200 μL of PBS, and 400 μL of cell lysis solution, which was contained in High Pure RNA Isolation Kit, were added, and the entire dish was well covered by the cell lysis solution. When the viscosity of the cell lysis solution was decreased, the cell lysis solution was collected into a 1.5-mL sample tube. The collected sample was well suspended. A filter tube and a collection tube, which were contained in High Pure RNA Isolation Kit, were assembled, and the sample was pipetted into a buffer reservoir in the upper portion of the filter tube, and was centrifuged at 8,000×g for 15 seconds. The flowthrough liquid into the collection tube was discarded, and the filter tube and the collection tube were again assembled. Then, 90 μL of DNase incubation buffer per sample was pipetted into a sterile reaction tube, and 10 μL of DNase I was added into the tube and mixed. The mixture liquid was pipetted into the buffer reservoir in the upper portion of the filter tube, was added on the glass fiber fleece in the filter tube, and was incubated at room temperature for 15 minutes. Then, 500 μL of wash buffer I, which was contained in High Pure RNA Isolation Kit, was added to the buffer reservoir in the upper portion of the filter tube, and was centrifuged at 8,000×g for 15 seconds. The flowthrough liquid into the collection tube was discarded, and the filter tube and the collection tube were again assembled. Then, 500 μL of wash buffer II was added to the buffer reservoir in the upper portion of the filter tube, and centrifugation was performed at 8,000×g for 15 seconds. The liquid discharged to the collection tube was discarded, and the filter tube and the collection tube were again assembled. Then, 200 μL of wash buffer II was added to the buffer reservoir in the upper portion of the filter tube, and centrifugation was performed at 13,000×g for 2 minutes, after which a remaining wash buffer in the filter tube was removed. The collection tube was discarded, the filter tube was inserted into a sterile reaction tube, and 50 μL of elution buffer was added in the filter tube, and centrifugation was performed at 8,000×g for 1 minute. The eluate obtained by the procedures was taken as an RNA solution. The concentration of RNA in the solution was calculated based on the light absorbance at 260 nm with a NanoDrop 2000/2000c spectrophotometer (Thermo Scientific, Waltham, Mass., USA), for use in subsequent experiments.
Then, 5 pmol of oligo(dT)20 primer was added to 1.0 μg of total RNA extracted from the cells, and sterile water was further added thereto so that the total liquid amount was 13 μL. Heat treatment was performed using a thermal cycler (Peltier Thermal Cycler PTC-200, MJ Research, Watertown, Mass., USA) at 65° C. for 5 minutes, and the resultant was immediately transferred in ice to quench it. During this treatment, the reverse transcriptase reaction program was advanced to the 42° C. stage and was temporarily stopped. A mixture solution obtained by mixing 4 μL of reverse transcriptase reaction buffer solution, 2 μL of 1 mM dNTPs (Amershan Pharmacia Biotech., Buckinghamshire, UK), and 0.5 μL of reverse transcriptase ReverTra Ace (TOYOBO, Osaka, Japan) per sample was added to and gently mixed with the sample on ice after 5 minutes. […]

SMILES	EGFP fluorescence intensity (hSIRT1 promoter activity) (hSIRT1 promoter)	relative gene expression level of hSIRT1 (sirtuin gene hSIRT1)
O=C1O[C@H]2[C@@H]3OC(=O)c4cc(O)c(O)c(O)c4-c4c(O)c(O)c5oc(=O)c6c(c(O)c(O)c7oc(=O)c4c5c76)-c4c(cc(O)c(O)c4O)C(=O)OC[C@H]3OC(O)[C@@H]2OC(=O)c2cc(O)c(O)c(O)c2-c2c1cc(O)c(O)c2O (mixture of isomers) [punicalagin]	hSIRT1 expression effect on skin epidermis cells was seen	hSIRT1 transcription enhancing effect was observed
C[C@@]12C=Cc3occc3[C@H]1CC[C@@]13C[C@@H](CC[C@H]12)[C@@](O)(CO)C3 [kahweol]	hSIRT1 expression effect on skin epidermis cells was seen	hSIRT1 transcription enhancing effect was observed
O=c1c(O)c(-c2ccc(O)c(O)c2)oc2cc(O)ccc12 [fisetin]	hSIRT1 expression effect on skin epidermis cells was seen	hSIRT1 transcription enhancing effect was observed
O=c1oc2cc(O)ccc2c2ccc(O)cc12 [urolithin A]	hSIRT1 expression effect on skin epidermis cells was seen	hSIRT1 transcription enhancing effect was observed
O=C1OC[C@H]2OC(O)[C@H](O)[C@@H](O)[C@@H]2OC(=O)c2cc(O)c(O)c(O)c2-c2c(O)c(O)c3oc(=O)c4c(c(O)c(O)c5oc(=O)c2c3c54)-c2c1cc(O)c(O)c2O (mixture of isomers) [punicalin]	hSIRT1 expression effect on skin epidermis cells was seen	hSIRT1 transcription enhancing effect was observed

Reference: patent US20170296568A1, “SIRTUIN GENE POTENTIATOR, AND PHARMACEUTICAL PRODUCT, COSMETIC PRODUCT, AND FOOD PRODUCT USING SAME” (MORISHITA JINTAN CO., LTD., priority 2012, published 2017)
